Publication PMC7646624 (European journal of medicinal chemistry, 2020)
“Also recorded” adds a separate entry of the source.

Experiments:
GST-DOT1L [1] = biological target: T1, GST-DOT1L (Homo sapiens, UniProt Q8TEK3); test: Saturation transfer difference; format: binding; settings: SAH added in five-fold molar excess
H3K79 methylation = test: Western blot analysis of H3K79 methylation in MLL-AF9 cells
[2] = test system: H3K4, H3K27, H3K36, H4K20 methylation; test: Western blot analysis of other histone methylation marks in MLL-AF9 cells
GST-DOT1L [3] = biological target: T1, GST-DOT1L; test: In vitro radio-isotope labeling DOT1L histone methyltransferase; settings: ratio of IC50 values, initial radio-isotope assays
PRMT1 = PRMT1 (Homo sapiens, UniProt Q99873); test: Methyltransferase profiling; format: biochemical
Sequence of PRMT1 (Q99873 whole entry): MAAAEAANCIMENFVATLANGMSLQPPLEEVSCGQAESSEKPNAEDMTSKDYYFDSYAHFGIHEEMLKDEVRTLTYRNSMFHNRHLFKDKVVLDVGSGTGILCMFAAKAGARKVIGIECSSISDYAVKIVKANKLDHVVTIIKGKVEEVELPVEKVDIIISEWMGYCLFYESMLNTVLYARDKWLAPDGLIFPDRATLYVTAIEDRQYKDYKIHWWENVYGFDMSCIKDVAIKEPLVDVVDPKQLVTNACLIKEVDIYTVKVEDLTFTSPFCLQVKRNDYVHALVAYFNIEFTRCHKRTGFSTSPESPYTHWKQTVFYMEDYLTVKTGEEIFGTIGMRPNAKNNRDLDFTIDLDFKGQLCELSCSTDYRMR

PRMT4 = biological target: T2, PRMT4 (Homo sapiens, UniProt Q86X55); test: Methyltransferase profiling; format: biochemical
T2 sequence (Q86X55 1-608): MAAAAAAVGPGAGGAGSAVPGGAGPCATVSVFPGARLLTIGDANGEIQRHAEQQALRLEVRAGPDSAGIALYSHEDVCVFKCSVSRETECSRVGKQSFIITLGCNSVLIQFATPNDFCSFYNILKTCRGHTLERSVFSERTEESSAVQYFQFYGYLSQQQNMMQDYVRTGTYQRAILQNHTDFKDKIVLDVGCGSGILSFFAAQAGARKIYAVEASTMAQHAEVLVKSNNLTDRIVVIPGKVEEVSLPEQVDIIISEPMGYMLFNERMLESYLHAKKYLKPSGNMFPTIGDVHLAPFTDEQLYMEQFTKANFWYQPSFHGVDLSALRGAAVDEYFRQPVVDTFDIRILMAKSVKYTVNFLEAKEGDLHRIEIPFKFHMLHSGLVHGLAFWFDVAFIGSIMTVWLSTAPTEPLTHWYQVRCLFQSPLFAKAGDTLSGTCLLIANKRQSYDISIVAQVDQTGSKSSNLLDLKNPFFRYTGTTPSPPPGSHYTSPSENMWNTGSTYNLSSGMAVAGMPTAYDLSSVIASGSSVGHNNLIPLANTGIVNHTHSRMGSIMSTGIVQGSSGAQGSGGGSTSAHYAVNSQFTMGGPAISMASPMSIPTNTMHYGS

PRMT5-MEP50 complex = PRMT5-MEP50 complex (Homo sapiens, UniProt O14744); test: Methyltransferase profiling; format: biochemical
Sequence of PRMT5-MEP50 complex (O14744 whole entry): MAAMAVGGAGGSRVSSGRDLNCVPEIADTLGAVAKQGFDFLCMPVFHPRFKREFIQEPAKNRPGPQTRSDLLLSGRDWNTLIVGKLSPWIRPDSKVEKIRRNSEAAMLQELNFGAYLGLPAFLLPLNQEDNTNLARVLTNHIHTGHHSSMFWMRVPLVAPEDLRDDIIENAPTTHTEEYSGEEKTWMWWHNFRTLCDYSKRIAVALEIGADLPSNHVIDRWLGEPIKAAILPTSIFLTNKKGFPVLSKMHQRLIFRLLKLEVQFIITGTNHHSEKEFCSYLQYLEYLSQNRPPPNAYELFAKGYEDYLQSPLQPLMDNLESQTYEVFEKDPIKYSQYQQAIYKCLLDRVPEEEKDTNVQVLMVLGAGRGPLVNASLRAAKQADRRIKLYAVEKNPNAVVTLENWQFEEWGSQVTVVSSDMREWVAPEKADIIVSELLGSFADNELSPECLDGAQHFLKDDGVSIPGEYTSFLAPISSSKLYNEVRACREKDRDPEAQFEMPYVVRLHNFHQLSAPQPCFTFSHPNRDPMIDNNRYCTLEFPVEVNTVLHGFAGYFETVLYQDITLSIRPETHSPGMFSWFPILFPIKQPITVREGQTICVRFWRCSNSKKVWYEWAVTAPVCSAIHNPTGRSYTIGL
Sequence of PRMT5-MEP50 complex (Q9BQA1 whole entry partner): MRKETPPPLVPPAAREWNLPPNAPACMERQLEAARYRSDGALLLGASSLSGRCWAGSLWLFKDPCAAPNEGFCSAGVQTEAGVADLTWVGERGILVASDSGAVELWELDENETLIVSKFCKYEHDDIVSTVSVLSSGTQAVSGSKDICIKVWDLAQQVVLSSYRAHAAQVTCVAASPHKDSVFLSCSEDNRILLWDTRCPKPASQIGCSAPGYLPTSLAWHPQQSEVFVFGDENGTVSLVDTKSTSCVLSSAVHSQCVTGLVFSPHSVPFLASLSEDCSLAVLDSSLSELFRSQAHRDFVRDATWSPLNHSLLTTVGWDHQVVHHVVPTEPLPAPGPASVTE

PRMT6 = PRMT6 (Homo sapiens, UniProt Q96LA8); test: Methyltransferase profiling; format: biochemical
Sequence of PRMT6 (Q96LA8 whole entry): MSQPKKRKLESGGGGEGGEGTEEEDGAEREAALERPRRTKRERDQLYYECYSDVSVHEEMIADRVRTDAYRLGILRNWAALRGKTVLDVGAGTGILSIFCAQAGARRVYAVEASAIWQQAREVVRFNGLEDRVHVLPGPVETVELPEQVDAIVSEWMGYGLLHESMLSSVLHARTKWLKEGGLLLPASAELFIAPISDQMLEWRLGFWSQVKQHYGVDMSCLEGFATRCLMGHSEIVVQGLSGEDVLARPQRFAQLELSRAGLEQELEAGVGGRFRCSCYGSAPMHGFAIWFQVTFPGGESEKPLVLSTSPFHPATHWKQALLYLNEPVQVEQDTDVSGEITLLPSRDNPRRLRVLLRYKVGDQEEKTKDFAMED

SUV39H2 = SUV39H2 (Homo sapiens, UniProt Q9H5I1); test: Methyltransferase profiling; format: biochemical
Sequence of SUV39H2 (Q9H5I1 whole entry): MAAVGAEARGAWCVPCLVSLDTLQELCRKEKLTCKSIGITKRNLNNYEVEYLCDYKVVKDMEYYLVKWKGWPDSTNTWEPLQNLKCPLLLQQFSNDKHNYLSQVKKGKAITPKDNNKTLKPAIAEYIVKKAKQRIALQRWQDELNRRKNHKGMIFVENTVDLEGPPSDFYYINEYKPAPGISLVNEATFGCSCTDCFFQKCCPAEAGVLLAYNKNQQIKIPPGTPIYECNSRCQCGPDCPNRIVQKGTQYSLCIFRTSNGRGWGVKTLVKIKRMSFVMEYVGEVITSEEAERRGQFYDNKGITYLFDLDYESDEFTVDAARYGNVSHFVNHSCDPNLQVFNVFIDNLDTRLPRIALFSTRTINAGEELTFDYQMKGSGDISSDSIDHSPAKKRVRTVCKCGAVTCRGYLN

[4] = test system: panel of Methyltransferases; test: Methyltransferase profiling; format: biochemical; settings: omitted from Table 2
PRMT3 = PRMT3 (Homo sapiens, UniProt O60678); test: biochemical
Sequence of PRMT3 (O60678 whole entry): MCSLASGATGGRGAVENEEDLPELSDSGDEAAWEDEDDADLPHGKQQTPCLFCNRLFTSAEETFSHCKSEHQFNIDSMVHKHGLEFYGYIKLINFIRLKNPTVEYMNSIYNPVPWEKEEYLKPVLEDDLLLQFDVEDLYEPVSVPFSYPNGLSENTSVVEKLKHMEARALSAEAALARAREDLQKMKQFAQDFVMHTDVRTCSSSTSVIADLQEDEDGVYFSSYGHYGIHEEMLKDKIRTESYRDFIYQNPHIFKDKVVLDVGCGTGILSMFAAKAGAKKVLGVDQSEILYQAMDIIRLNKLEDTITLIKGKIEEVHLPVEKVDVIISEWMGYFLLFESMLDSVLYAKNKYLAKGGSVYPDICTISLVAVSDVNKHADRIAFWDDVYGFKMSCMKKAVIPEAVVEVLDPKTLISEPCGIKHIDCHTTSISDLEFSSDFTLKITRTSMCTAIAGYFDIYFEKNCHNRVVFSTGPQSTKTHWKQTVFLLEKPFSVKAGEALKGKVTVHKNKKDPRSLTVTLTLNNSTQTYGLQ

PRMT5 Alone = PRMT5 Alone (Homo sapiens, UniProt O14744); test: biochemical
Sequence of PRMT5 Alone (O14744 whole entry): as the sequence (O14744 whole entry) above

[5] = test system: MLL-AF9 transformed cells
E2A-HLF cells = settings: DOT1L-independent negative control line
[6] = test system: MLL-AF9 transformed cells; settings: various doses

T1 sequence (Q8TEK3 1-420): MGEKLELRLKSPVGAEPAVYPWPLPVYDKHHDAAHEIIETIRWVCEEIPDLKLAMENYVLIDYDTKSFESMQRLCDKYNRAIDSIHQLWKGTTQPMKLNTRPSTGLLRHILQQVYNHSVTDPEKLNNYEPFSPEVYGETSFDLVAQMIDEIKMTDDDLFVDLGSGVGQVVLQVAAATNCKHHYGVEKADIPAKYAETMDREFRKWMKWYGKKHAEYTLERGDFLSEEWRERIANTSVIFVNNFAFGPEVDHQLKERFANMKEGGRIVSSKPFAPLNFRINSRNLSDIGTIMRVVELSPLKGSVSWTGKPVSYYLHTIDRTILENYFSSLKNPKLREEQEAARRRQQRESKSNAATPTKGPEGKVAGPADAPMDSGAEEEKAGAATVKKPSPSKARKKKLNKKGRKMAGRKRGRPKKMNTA

| Compound | IC50 (PRMT1) [µM] | IC50 (PRMT4) [µM] | IC50 (PRMT5-MEP50 complex) [µM] | IC50 (PRMT6) [µM] | IC50 (SUV39H2) [µM] | IC50 (PRMT3) [µM] | further results |
| --- | --- | --- | --- | --- | --- | --- | --- |
| Nc1ncnc2c1ncn2[C@@H]1O[C@H](CNCc2ccc(OCC(=O)Nc3ccccn3)cc2)[C@@H](O)[C@H]1O [Compound 2] | – | – | – | – | – | – | competitive STD NMR with SAH (GST-DOT1L [1]): competed off by SAH; cellular H3K79 methylation (H3K79 methylation; time course of 3, 6 and 9 days): inhibits cellular H3K79 dimethylation; also recorded: reduced; H3K4, H3K27, and H3K36 trimethylation states [2]: not changed |
| Cc1ccc(NC(=O)c2ncn(CC(=O)NCc3ccc4c(c3)OCO4)n2)cc1C [Compound 9, 1-(2-((benzo[d][1,3]dioxol-5-ylmethyl)amino)-2-oxoethyl)-N-(3,4-dimethylphenyl)-1H-1,2,4-triazole-3-carboxamide] | – | – | – | – | – | – | fold better activity than 8 (GST-DOT1L [3]): 1.5 fold |
| Cc1ccc(NC(=O)c2ncn(CC(=O)NCc3ccc4c(N)nccc4c3)n2)cc1C [Compound 19, 1-(2-(((1-aminoisoquinolin-6-yl)methyl)amino)-2-oxoethyl)-N-(3,4-dimethylphenyl)-1H-1,2,4-triazole-3-carboxamide] | > 250 | > 250 | > 250 | > 250 | – | – | – |
| Cc1ccc(NC(=O)c2ncn(CC(=O)NCCn3ccc4c(N)ncnc43)n2)cc1C [Compound 20, 1-(2-((2-(4-amino-7H-pyrrolo[2,3-d]pyrimidin-7-yl)ethyl)amino)-2-oxoethyl)-N-(3,4-dimethylphenyl)-1H-1,2,4-triazole-3-carboxamide] | – | – | – | – | > 250 | – | – |
| CC(C)(C)c1ccc(NC(=O)c2ncn(CC(=O)NCc3ccc4c(c3)OCO4)n2)cc1 [Compound 22, 1-(2-((benzo[d][1,3]dioxol-5-ylmethyl)amino)-2-oxoethyl)-N-(4-(tert-butyl)phenyl)-1H-1,2,4-triazole-3-carboxamide] | – | – | – | – | – | – | activity versus all MTs tested in the profiling assays [4]: inactive |
| CC(C)(C)c1ccc(NC(=O)c2ncn(CC(=O)NCc3ccc4[nH]ncc4c3)n2)cc1 [Compound 23, 1-(2-(((1H-indazol-5-yl)methyl)amino)-2-oxoethyl)-N-(4-(tert-butyl)phenyl)-1H-1,2,4-triazole-3-carboxamide] | – | – | – | – | > 250 | – | – |
| CC(C)(C)c1ccc(NC(=O)c2ncn(CC(=O)NCc3ccc4c(N)nccc4c3)n2)cc1 [Compound 24, 1-(2-(((1-aminoisoquinolin-6-yl)methyl)amino)-2-oxoethyl)-N-(4-(tert-butyl)phenyl)-1H-1,2,4-triazole-3-carboxamide] | > 250 | > 250 | > 250 | > 250 | > 250 | 41.1 | IC50 (PRMT5 Alone): 227 µM |
| CC(C)(C)c1ccc(NC(=O)c2ncn(CC(=O)NCCn3ccc4c(N)ncnc43)n2)cc1 [Compound 25, 1-(2-((2-(4-amino-7H-pyrrolo[2,3-d]pyrimidin-7-yl)ethyl)amino)-2-oxoethyl)-N-(4-(tert-butyl)phenyl)-1H-1,2,4-triazole-3-carboxamide] | > 250 | > 250 | > 250 | > 250 | > 250 | 149 | cell growth inhibition of MLL-AF9 cells ([5]; day 11 at 30 μM): complete cell growth inhibition; killing of MLL-AF9 cells versus E2A-HLF cells ([5]; murine established leukemia cell lines): selectively killed MLL-AF9; effect on the growth of E2A-HLF cells (E2A-HLF cells): without showing any effect on the growth; cell differentiation, Wright-Giemsa stain [6]: dose-dependent cell differentiation; IC50 (PRMT5 Alone): 187 µM; cellular H3K79 methylation (H3K79 methylation; day 6): dose-dependent inhibition; cellular H3K79 methylation (H3K79 methylation; day 9, 30 μM): complete inhibition; cellular H3K79 methylation (H3K79 methylation; day 9, 10 and 3 μM): significant decrease; H3K4me3 and H4K20me2 ([2]; day 6): no significant changes |
| Nc1nccc2cc(CNC(=O)Cn3cnc(C(=O)NC4CCCCC4)n3)ccc12 [Compound 28, 1-(2-(((1-aminoisoquinolin-6-yl)methyl)amino)-2-oxoethyl)-N-cyclohexyl-1H-1,2,4-triazole-3-carboxamide] | > 250 | > 250 | > 250 | > 250 | – | – | – |
| Nc1ncnc2c1ncn2[C@@H]1O[C@H](CSCC[C@H](N)C(=O)O)[C@@H](O)[C@H]1O [SAH, S-adenosylhomocysteine, reference compound] | – | – | – | – | – | 1.44 | – |
